In ChEMBL document CHEMBL1201862, “PubChem BioAssay data set” (2004):
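1) Cells in 96-well plates. 2) Compound, 48 h, 5 concentrations. 3) Linear interpolation between surrounding doses. 4) Unreached endpoint = highest concentration. GI50 marks 50% less growth.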 The source made the active and inactive calls. No stated cut-off is given here; in the data, active = GI50 up to about 1.1 µM and inactive = higher.

Key:
Assay in all cases: NCI-60 cell line screen, 48 h
[1] = tested on: 786-0
[2] = tested on: IGROV-1
[3] = tested on: Malme-3M
[4] = tested on: NCI-H23
[5] = tested on: OVCAR-8
[6] = tested on: RXF 393
[7] = tested on: SF-268
[8] = tested on: SF-539
[9] = tested on: SN12C
[10] = tested on: SNB-19
[11] = tested on: SNB-75
[12] = tested on: SW-620
[13] = tested on: KM12
[14] = tested on: RPMI-8226
[15] = tested on: SF-295
[16] = tested on: TK-10

Measured: GI50

Nc1cc(C(=O)NC2C3CC4CC(C3)CC2C4)nc(S)n1 (stereo unspecified)
inactive: [1] > 100 µM | [2] > 100 µM | [3] > 100 µM | [4] > 100 µM | [5] > 100 µM | [6] > 100 µM | [7] > 100 µM | [8] > 100 µM | [9] > 100 µM | [10] > 100 µM | [11] > 100 µM | [12] > 100 µM

O=C(c1ccccc1)c1nnn(Cc2ccccc2Cn2nnc(C(=O)c3ccccc3)c2C(=O)c2ccccc2)c1C(=O)c1ccccc1
inactive: [1] > 100 µM | [2] 94.4 µM | [13] > 100 µM | [3] > 100 µM | [4] > 100 µM | [5] > 100 µM | [14] > 100 µM | [7] > 100 µM | [15] > 100 µM | [8] > 100 µM | [9] > 100 µM | [10] > 100 µM | [11] > 100 µM | [12] > 100 µM | [16] > 100 µM

CCN(CC)CCCn1cnc2ncccc2c1=O
inactive: [1] > 100 µM | [2] > 100 µM | [13] > 100 µM | [3] > 100 µM | [4] > 100 µM | [5] > 100 µM | [6] > 100 µM | [7] > 100 µM | [15] > 100 µM | [8] > 100 µM | [9] > 100 µM | [10] > 100 µM | [11] > 100 µM | [12] > 100 µM | [16] > 100 µM

COc1ccc(/C=C/C(=O)c2c(-c3ccccc3)nn(C)c(=O)c2N2CCOCC2)cc1
inactive: [1] > 100 µM | [2] > 100 µM | [4] > 100 µM | [5] > 100 µM | [14] 38.5 µM | [6] > 100 µM | [7] > 100 µM | [15] > 100 µM | [8] > 100 µM | [9] > 100 µM | [10] > 100 µM | [12] > 100 µM | [16] > 100 µM

COc1ccc2c(c1)[n+]([O-])c(-c1ccccc1Cl)c(N)[n+]2[O-]
inactive: [1] > 100 µM | [2] 79.1 µM | [13] 67.1 µM | [3] > 100 µM | [4] 37.2 µM | [5] > 100 µM | [14] 88.1 µM | [7] 74.3 µM | [15] > 100 µM | [8] > 100 µM | [9] > 100 µM | [10] > 100 µM | [11] 75 µM | [12] 61.7 µM

OCC1C(/C=C/c2ccoc2)ON2CCCC12 (stereo unspecified)
inactive: [1] > 100 µM | [13] > 100 µM | [3] 20.8 µM | [4] > 100 µM | [5] > 100 µM | [6] > 100 µM | [7] > 100 µM | [15] > 100 µM | [8] > 100 µM | [9] > 100 µM | [10] > 100 µM | [11] > 100 µM | [12] > 100 µM | [16] > 100 µM

Cc1nc(Nc2ccc(Cl)cc2)sc1C(=O)NNC(=O)C(=O)NN
inactive: [1] 17.3 µM | [2] 19.1 µM | [13] 18.3 µM | [3] 21.9 µM | [4] 16.6 µM | [5] 32.5 µM | [6] 24.9 µM | [7] 27.8 µM | [15] 18.2 µM | [8] 26.1 µM | [9] 16.1 µM | [10] 21.3 µM | [11] 23.7 µM | [12] 18 µM | [16] 29.5 µM

O=[N+]([O-])c1cccc(C2N3CCCCC3[C@@H]3c4[nH]c5ccccc5c4CCN23)c1 (stereo partly specified)
inactive: [1] 16.9 µM | [2] 14.9 µM | [3] 2.55 µM | [4] 12.4 µM | [5] 31.4 µM | [14] 10.9 µM | [6] 5.86 µM | [7] 12 µM | [15] 15.1 µM | [8] 14.8 µM | [9] 14.5 µM | [10] 19.7 µM | [12] 20 µM | [16] 14.4 µM

C[Si](C)(C)C#C[I+]c1ccccc1
inactive: [1] 45.6 µM | [2] 92 µM | [13] 87.3 µM | [3] 41 µM | [4] 36.8 µM | [5] 19.6 µM | [6] 47.4 µM | [7] 45.9 µM | [15] > 100 µM | [8] 28.9 µM | [9] 21.7 µM | [10] > 100 µM | [11] 40.4 µM | [16] > 100 µM

Nc1c(-c2ccc(Br)cc2)[n+]([O-])c2ccccc2[n+]1[O-]
inactive: [1] > 100 µM | [2] > 100 µM | [13] > 100 µM | [3] > 100 µM | [4] > 100 µM | [5] > 100 µM | [14] 27.9 µM | [7] > 100 µM | [15] > 100 µM | [8] > 100 µM | [9] > 100 µM | [10] > 100 µM | [11] 81.3 µM | [12] > 100 µM

COc1cc(/C=C2\C(=O)N(C(=O)c3ccc(NC(C)=O)cc3)N=C2C)ccc1O
inactive: [1] > 100 µM | [13] > 100 µM | [3] > 100 µM | [4] > 100 µM | [5] > 100 µM | [14] > 100 µM | [7] > 100 µM | [15] > 100 µM | [8] > 100 µM | [9] > 100 µM | [10] > 100 µM | [11] > 100 µM | [12] > 100 µM | [16] > 100 µM

Cc1ccc(-c2cc(=S)n(-c3ccccc3)c3[nH]c(=S)n(-c4ccccc4)c(=N)c23)cc1
inactive: [1] > 100 µM | [2] > 100 µM | [13] > 100 µM | [3] > 100 µM | [4] > 100 µM | [5] > 100 µM | [14] > 100 µM | [7] > 100 µM | [15] > 100 µM | [8] > 100 µM | [10] > 100 µM | [11] > 100 µM | [12] > 100 µM | [16] > 100 µM

CNC(=S)NNC(=O)c1c(C)nc2sccn12
inactive: [1] > 100 µM | [2] > 100 µM | [13] > 100 µM | [3] > 100 µM | [4] > 100 µM | [5] > 100 µM | [6] > 100 µM | [7] > 100 µM | [15] > 100 µM | [8] > 100 µM | [9] > 100 µM | [10] 99.5 µM | [12] > 100 µM | [16] > 100 µM

Cc1c(C(=O)/C=C/c2ccc(N(C)C)cc2)c(=O)n(-c2ccccc2)n1C
inactive: [1] > 100 µM | [2] > 100 µM | [13] > 100 µM | [3] > 100 µM | [4] > 100 µM | [5] > 100 µM | [6] > 100 µM | [7] > 100 µM | [15] > 100 µM | [8] > 100 µM | [9] > 100 µM | [10] > 100 µM | [12] > 100 µM | [16] > 100 µM
